Tests used:
Assay type in all cases: cell-based, human
MCF7 cells [1] = assay: in vitro transwell migration assay; conditions: 16 hours
From the text: (§1) MDA-MB-231/TGL cell lines was obtained from Dr. Joan Massagué (Minn, et al, J. Clin. Invest., 115:(1), 44-55 (2005)). CM cell line was obtained from Dr. Paolo Pozzilli (S. Kobayashi et al., Oncogenesis 8, 16 (2019)). MCF7 breast cancer cells and 8988T pancreatic cancer cells were infected with viruses carrying thymidine kinase/green fluorescent protein/luciferase fusion reporter (TGL), which was obtained from Drs. Inna Serganova and Ronald Blasberg (V. Ponomarev et al., European journal of nuclear medicine and molecular imaging 31, 740-751 (2004)). GFP-positive MCF7/TGL and […] cells were enriched by fluorescence-activated cell sorting. H1975, lung adenocarcinoma cell line, was obtained from ATCC (Manassas, VA). MCF7/TGL/pQ and MCF7/TGL/HA-Bcl-xL cell lines were generated by infecting MCF7/TGL cells with viruses carrying pQXCIP or pQXCIP-HA-Bcl-xL, and selected in the medium containing 0.5-1 µg/ml puromycin. Human CYP1B1cDNA (GeneScript) was transiently transfected into MCF7/TGL, MDA-MB-231/TGL, and 8988T/TGL with Lipofectamine 3000 according to the manufacture’s protocol (Invitrogen, Carlsbad, CA). Cells were treated with CO at 250 ppm for 16 hours. Control air condition was a regular cell culture incubator with 5% CO2. Cells were also treated with 30 µM Hemin (HY-19424, MedChemExpress, Monmouth Junction, NJ) in standard tissue culture incubator or 250 ppm CO.
(§2) 6.5 mm Transwell with 8.0 µm Pore Polycarbonate Membrane Insert (Corning, NY, Cat. No. 3422) was used for the cell migration assay (FIG. 1J). After 16 hours of incubation, cells migrated to the opposite side of the upper chambers were fixed with 4% paraformaldehyde, stained with 0.2% crystal violet for 30 min and counted in five fields under × 20 magnification. In parallel, cells were seeded on 24-well plates for proliferation assay. Cells for proliferation control were fixed with 4% paraformaldehyde, stained with 0.2% crystal violet for 30 min and lysed with methanol to release the crystal violet as described by M. Feoktistova, P. Geserick, & M. Leverkus, Cold Spring Harb Protoc 2016, pdb prot087379 (2016). The optical density was measured at 595 nm (OD595). To supplement heme/hemin in the transwell migration assay, 30 µM hemin (MedChemExpress, Monmouth Junction, NJ, Cat. No. HY-19424) was added to both the cell suspension in the upper chambers and the bottom wells.
(§3) To examine whether CO has an effect on tumor cell migration, in vitro transwell migration assays were performed. Various human cancer cell lines, including 3 types of breast cancer (ER^+: MCF7 cells, HER2^+: HCC1954 cells, triple-negative breast cancer (TNBC): MDA-MB-231 cells), pancreatic ductal adenocarcinoma (PDAC) (8988T cells), pancreatic neuroendocrine tumor (PNET) (CM cells), colon cancer (SW480 cells), prostate cancer (22Rv1 cells), liver cancer (HepG2 cells), and lung cancer (H1975 cells) were seeded in the upper chamber of 8-µm porous polycarbonate membranes. Cell migration through the transwell membrane along a serum gradient (Table 1) after 16 hours in the presence or absence of 250 ppm CO were measured.

8988T cells [2] = assay: in vitro transwell migration assay; conditions: 16 hours
From the text: as §1, §2, §3

H1975 cells [3] = assay: in vitro transwell migration assay; conditions: 16 hours
From the text: as §1, §2, §3

HepG2 cells [4] = assay: in vitro transwell migration assay; conditions: 16 hours
From the text: as §1, §2, §3

SW480 cells [5] = assay: in vitro transwell migration assay; conditions: 16 hours
From the text: as §1, §2, §3

22Rv1 cells [6] = assay: in vitro transwell migration assay; conditions: 16 hours
From the text: as §1, §2, §3

HCC1954 cells [7] = assay: in vitro transwell migration assay; conditions: 16 hours
From the text: as §1, §2, §3

CM cells [8] = assay: in vitro transwell migration assay; conditions: 16 hours
From the text: as §1, §2, §3

[9] = tested on: various cancer cell lines; assay: proliferation assay, statements across cancer types
Procedure: (§4) Proliferation of different cancer cells under control air or 250 ppm CO treatment with or without supplement of 30 µM hemin was determined. Indicated cell lines cell lines were seeded in the 24-well plate in normal growth media. 16 hours later, cells were fixed, stained with crystal violet, and lysed by methanol. OD595 were measured from triplicates of each cell type. Error bars represent SEM. *: P < 0.05, two-sided t-test. Scale bar, 100 µm.
6.5 mm Transwell with 8.0 µm Pore Polycarbonate Membrane Insert (Corning, NY, Cat. No. 3422) was used for the cell migration assay (FIG. 1J). After 16 hours of incubation, cells migrated to the opposite side of the upper chambers were fixed with 4% paraformaldehyde, stained with 0.2% crystal violet for 30 min and counted in five fields under × 20 magnification. In parallel, cells were seeded on 24-well plates for proliferation assay. […] The optical density was measured at 595 nm (OD595). […]
To investigate whether 250 ppm CO induces hypoxia, HiF1α protein levels in low-dose CO-treated MCF7/TGL and MDA-MB-231/TGL cells were examined. […] To assess the intracellular heme levels affected by low-dose CO treatment, oxidized heme levels in the form of hemin (Fe^3+ state) were measured because free heme (Fe^2+ state) is readily oxidized and cannot be measured. […]

MCF7 cells [10] = assay: proliferation assay (crystal violet, OD595); conditions: 16 hours
Procedure: as §4, §2, §3

8988T cells [11] = assay: proliferation assay (crystal violet, OD595); conditions: 16 hours
Procedure: as §4, §2, §3

H1975 cells [12] = assay: proliferation assay (crystal violet, OD595); conditions: 16 hours
Procedure: as §4, §2, §3

HepG2 cells [13] = assay: proliferation assay (crystal violet, OD595); conditions: 16 hours
Procedure: as §4, §2, §3

SW480 cells [14] = assay: proliferation assay (crystal violet, OD595); conditions: 16 hours
Procedure: as §4, §2, §3

22Rv1 cells [15] = assay: proliferation assay (crystal violet, OD595); conditions: 16 hours
Procedure: as §4, §2, §3

HCC1954 cells [16] = assay: proliferation assay (crystal violet, OD595); conditions: 16 hours
Procedure: as §4, §2, §3

CM cells [17] = assay: proliferation assay (crystal violet, OD595); conditions: 16 hours
Procedure: as §4, §2, §3

[18] = 250 ppm CO, serum gradient, vs control air
[19] = 30 µM hemin in upper and lower chambers + 250 ppm CO
[20] = 30 µM hemin, with or without 250 ppm CO

Compound: [C-]#[O+] [CO, Carbon monoxide]
- cell migration through the transwell membrane (MCF7 cells [1]; MCF7 cells, 250 ppm CO, serum gradient, vs control air): significantly reduced
- cell migration through the transwell membrane (8988T cells [2]; [18]): significantly reduced
- cell migration through the transwell membrane (H1975 cells [3]; [18]): significantly reduced
- cell migration through the transwell membrane (HepG2 cells [4]; [18]): significantly reduced
- cell migration through the transwell membrane (SW480 cells [5]; [18]): significantly reduced
- cell migration through the transwell membrane (22Rv1 cells [6]; [18]): significantly reduced
- cell migration through the transwell membrane (HCC1954 cells [7]; [18]): significantly reduced
- cell migration through the transwell membrane (CM cells [8]; [18]): significantly reduced
- cancer cell proliferation across different cancer types ([9]; 250 ppm CO for 16 hours, vs control air): does not affect
- cell proliferation (MCF7 cells [10]; MCF7 cells, 250 ppm CO, vs control air): did not affect
- cell proliferation (8988T cells [11]; 250 ppm CO, vs control air): did not affect
- cell proliferation (H1975 cells [12]; 250 ppm CO, vs control air): did not affect
- cell proliferation (HepG2 cells [13]; 250 ppm CO, vs control air): did not affect
- cell proliferation (SW480 cells [14]; 250 ppm CO, vs control air): did not affect
- cell proliferation (22Rv1 cells [15]; 250 ppm CO, vs control air): did not affect
- cell proliferation (HCC1954 cells [16]; 250 ppm CO, vs control air): did not affect
- cell proliferation (CM cells [17]; 250 ppm CO, vs control air): did not affect

Compound: Hemin [reference compound]
- cell migration inhibited by 250 ppm CO (reversal by hemin) (MCF7 cells [1]; MCF7/TGL cells, 30 µM hemin in upper and lower chambers + 250 ppm CO): significantly reversed
- cell migration inhibited by 250 ppm CO (reversal by hemin) (8988T cells [2]; [19]): significantly reversed
- cell migration inhibited by 250 ppm CO (reversal by hemin) (H1975 cells [3]; [19]): significantly reversed
- cell migration inhibited by 250 ppm CO (reversal by hemin) (HepG2 cells [4]; [19]): significantly reversed
- cell migration inhibited by 250 ppm CO (reversal by hemin) (SW480 cells [5]; [19]): significantly reversed
- cell migration inhibited by 250 ppm CO (reversal by hemin) (22Rv1 cells [6]; [19]): significantly reversed
- cell migration inhibited by 250 ppm CO (reversal by hemin) (HCC1954 cells [7]; [19]): significantly reversed
- cell migration inhibited by 250 ppm CO (reversal by hemin) (CM cells [8]; [19]): significantly reversed
- cell proliferation of various cancer cell lines with hemin ([9]; 30 µM hemin in the medium (FIGS. 2C-2E)): slightly increased
- cancer cell proliferation with hemin supplement (MCF7 cells [10]; MCF7/TGL cells, 30 µM hemin, with or without 250 ppm CO): did not alter
- cancer cell proliferation with hemin supplement (8988T cells [11]; [20]): did not alter
- cancer cell proliferation with hemin supplement (H1975 cells [12]; [20]): did not alter
- cancer cell proliferation with hemin supplement (HepG2 cells [13]; [20]): did not alter
- cancer cell proliferation with hemin supplement (SW480 cells [14]; [20]): did not alter
- cancer cell proliferation with hemin supplement (22Rv1 cells [15]; [20]): did not alter
- cancer cell proliferation with hemin supplement (HCC1954 cells [16]; [20]): did not alter
- cancer cell proliferation with hemin supplement (CM cells [17]; [20]): did not alter
